Measured values: the METLIN SMRT retention time set (Domingo-Almenara et al. 2019)

Experiment: gradient 5% acetonitrile 3 min, to 50% in 2 min, to 85% in 15 min, held 3 min, 100 µL/min
Conditions: column: Zorbax Extend-C18 2.1 x 50 mm; eluents: water / acetonitrile, 0.1% formic acid
In short: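 Pure standards were analyzed in mixtures of ~100 molecules using HPLC coupled to a quadrupole time-of-flight mass spectrometer, in both positive and negative ionization mode. Separation used a Zorbax Extend-C18 column (2.1 × 50 mm, 1.8 μm) at 100 μL/min, with water and acetonitrile each containing 0.1% formic acid. Dead and dwell volumes were 40 μL and 900 μL, and data were collected over 3 months. Retention time was read from computationally picked adduct peaks, each inspected manually.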

RP-LC retention time [s]	Compound
989	CCc1ccc(N2CC(c3nc(-c4ccc(OC)c(OC)c4)no3)CC2=O)cc1 (stereo not drawn)
712	Cc1ccc(F)cc1NC(=O)Cn1cnc2nc(N3CCCC(C(=O)NC(C)C)C3)sc2c1=O (stereo not drawn)
910	COc1cc(OC)c(NS(=O)(=O)c2ccc3c(c2)-c2oncc2CO3)cc1Cl
878	COc1ccc(-c2noc(C3CC(=O)N(c4cccc(Cl)c4)C3)n2)c(OC)c1 (stereo not drawn)
819	CCn1c(SCC(=O)Nc2ccc3c(c2)OCO3)nnc1-c1cn(C)nc1-c1ccc(Cl)cc1
656	Cc1ccc2ncc(C(=O)NCCCOC(C)C)c(=O)n2c1
950	CC(C)n1cc(S(=O)(=O)Nc2ccc(Cl)cc2F)c2cccnc21
846	COc1ccc2nc(C(=O)NCc3cccc(Cl)c3)cn2n1
972	CCOc1ccc(-c2cn3ccn(-c4cc(C)c(Cl)cc4OC)c(=O)c3n2)cc1
1040	Cc1ccccc1-c1noc(Cc2nnc(-c3ccc(F)cc3)o2)n1
664	Cc1cc2[nH]c(C(=O)Nc3cc(F)c(F)cc3F)c(CN(C)C)c2s1
583	O=C(Cc1cccs1)NCCN1CCN(c2ccc(Cl)cc2)CC1
602	OCCN(Cc1ccccc1)CC(O)COc1ccc(Cl)cc1Cl (stereo not drawn)
958	CSc1ccc(CNC(=O)Cn2ccc3ccc(N4CCOCC4)nc32)cc1
698	CC(C)OCCCNC(=O)Cn1nc2c(cc1=O)CCCCC2
874	Cc1c(N2CCCC2)cc2c(c1NC(=O)c1ccccc1Cl)C(C)(C)CC2(C)C
1140	CCc1cc(C(=O)Nc2ccc(C)cc2F)nc2ccnn12
735	COCC(=O)NC1CCC12CCN(C(=O)CCC1CCCC1)CC2 (stereo not drawn)
785	Cc1cc(N2CCN(S(=O)(=O)c3cc(F)ccc3C)CC2)nc(N2CCCCC2)n1

RP-LC retention time [s]	Compound
582	O=C(Cn1nc(Cc2ccncc2)c2ccccc2c1=O)N1CCN(C(=O)c2ccco2)CC1
1030	CC1CCN(c2nn(CC(=O)NCc3cccs3)c(=O)c3ccccc23)CC1
698	COCCNC(=O)CSc1cc(N2CCN(c3ccccc3OC)CC2)ncn1
959	CCc1nc(-c2cc(S(=O)(=O)NCC(=O)N3CCN(c4ccc(F)cc4)CC3)c(C)s2)no1
1140	O=C(c1cccc(Cl)c1)N1CCc2nc(-c3ccc(Cl)cc3)ncc2C1
896	CCOc1ccc(-c2[nH]ncc2CNS(=O)(=O)Cc2ccc(C)c(C)c2)cc1
773	O=C(O)c1ccc(S(=O)(=O)N2CCc3ccccc3C2)cc1
684	COc1ccc(C)cc1NC(=O)CN1CCN(Cc2ccccc2)C(=O)C1=O
789	Cc1nc(-c2nc(-c3cccs3)cs2)cn1CC(=O)NCc1ccc(F)cc1
778	COc1ccc(OC)c(NC(=O)C2CCN(S(=O)(=O)c3cn(C(C)C)cn3)CC2)c1
707	Cc1ccc(-c2nc3ncc(C#N)c(N)n3n2)cc1
586	Cc1ccccc1Cn1cc(-c2ccncc2)cc1C(=O)N1CCN(C2CCCCC2)CC1
926	COc1ccc(-c2ccc3nc(N4CCC(C(=O)NC(C)C)CC4)sc3n2)cc1
753	Cc1ccc(CNC(=O)Cn2nc3c4ccc(Cl)cc4ncn3c2=O)cc1
916	CCOc1ccc(Cl)cc1S(=O)(=O)N1CCC(C(=O)NC2CCCC2)CC1
790	CC1CN(c2ccc(Cl)cc2)c2nc3c(c(=O)n(CC(=O)O)c(=O)n3C)n2C1 (stereo not drawn)
741	CCN1C(=O)c2c(C(=O)NCc3ccccc3F)ncn2CC1(C)C(=O)NC1CCCC1 (stereo not drawn)
704	Cc1cc(-c2csc(S(=O)(=O)NCCCN3CCN(c4ccccc4F)CC3)c2)on1
718	CCCNC(=O)c1cc(C)nc2ccc(Br)cc12

More lines, now with the values behind:

Compound	RP-LC retention time [s]
Cc1cc(NC(=O)C2Oc3ccccc3NC2=O)ccc1Br (stereo not drawn)	865
CC(=O)NCCc1csc(C2CCN(C(=O)C3CCCC3)CC2)n1	676
CCOc1ccc(CC(=O)N2C[C@@H]3C[C@H]2C[C@@H]3NS(=O)(=O)c2cccs2)cc1	791
COc1cc(NC(=O)Nc2nccn(-c3ccc(C)c(C)c3)c2=O)cc(OC)c1	955
O=C(NCCS(=O)(=O)N1CCN(c2ncccn2)CC1)c1cccs1	663
CCOC(=O)c1cc(C2CC2)nc2c1c(=O)n(Cc1cccc(C(F)(F)F)c1)c(=O)n2C	1270
Cc1cc(N2CCN(C(=O)c3ccco3)CC2)nc(N2CCOCC2)n1	566
COc1ccc(NC(=O)C2CCN(c3cnc4nccnc4c3)CC2)cc1Cl	712
CCOc1ccc(-c2noc(Cn3c(=O)n(CCCOC)c(=O)c4ccccc43)n2)cc1	1050
Cc1cccc(NC(=O)N2CCC(N3CCN(Cc4ccccc4)C(=O)C3=O)CC2)c1	744
COc1ccc(C(C)NC(=O)c2cc(NC(C)=O)cc3nc(C)ccc23)cc1 (stereo not drawn)	618
c1cn2cnnc2cc1-c1noc(-c2ccc3c(c2)OCO3)n1	792
O=C(Cn1c(=O)n(C2CC2)c(=O)c2nscc21)NCCC1=CCCCC1	776
CCN(CC)C(=O)c1ccc2c(c1)CCCN2S(C)(=O)=O	748
CC(C)(C)c1csc(-c2csc(S(=O)(=O)NC3CCCCCC3)c2)n1	1010
CC(C)NC(=O)c1ccc(-c2nc3cc(NS(=O)(=O)c4ccc(F)c(F)c4)ccc3n2C)cc1	721
O=C(NCCCN1CCCC1=O)c1nc(Nc2ccc(F)cc2)c2ccccc2n1	636
CCS(=O)(=O)N1C[C@@H](COc2ccncc2)[C@H](c2ccccn2)C1	512
Cc1nc(-c2ccc(N3CCN(C(=O)c4ccc(Br)o4)CC3)cc2)no1	912
CCC(C)NC(=O)Cn1c(=O)n(CC(C)C)c(=O)c2nscc21 (stereo not drawn)	735
CN1C(=O)c2cccnc2Sc2cc(NC(=O)C3CCCC3)ccc21	749
O=C(CN1C(=O)CCC1=O)NCC1(c2ccc(F)cc2)CC1	665
COC(=O)c1c(-c2ccc(Cl)cc2)noc1NC(C)C	1090
O=C(NC1CCN(c2nnc3ccc(C(F)(F)F)cn23)CC1)c1cccc(F)c1	782
CCn1cnc(S(=O)(=O)N2CCC(C(=O)N3CCN(c4cccc(Cl)c4)CC3)CC2)c1	825

Compound	RP-LC retention time [s]
CCOC(=O)c1cccc(NC(=O)NC2COc3ccc(OC)cc3C2)c1 (stereo not drawn)	906
COc1ccc(N2CCN(c3cc(SCC(=O)Nc4ccc(F)cc4F)ncn3)CC2)cc1	1050
O=C(Cn1c(=O)c2nncn2c2ncccc21)N1CCN(c2ccc(Cl)cc2)CC1	744
Cc1ccc(-c2csc(NC(=O)COc3cc(C)cc(C)c3)n2)cc1	1270
COc1ccc(Cl)cc1NC(=O)CCc1c(-c2ccc(F)cc2)nc2ccccn12	724
CC(C)c1ccc(NC(=O)C2CCN(C(=O)C3Sc4ccccc4NC3=O)CC2)cc1 (stereo not drawn)	872
Cc1cc2c(cc1S(=O)(=O)N1CCCC1C(=O)NCc1ccc3c(c1)OCO3)OCC(=O)N2 (stereo not drawn)	718
O=C(C1CCCN(S(=O)(=O)c2cc(-c3noc(C4CCCC4)n3)cs2)C1)N1CCOCC1 (stereo not drawn)	966
CN1C(=O)c2cc(S(=O)(=O)Nc3ccc(F)c(Cl)c3)ccc2Oc2cccnc21	962
CC[C@H](C)[C@H](NC(=O)N1C[C@@H]2C[C@@H](C1)c1cccc(=O)n1C2)C(=O)O	598
CC1(C(=O)NCc2ccccc2)CN(S(C)(=O)=O)CC(=O)N1c1ccc(F)cc1 (stereo not drawn)	750
O=C(NCc1ccc2c(c1)OCO2)c1ccc(S(=O)(=O)NCC2CCCO2)cc1 (stereo not drawn)	688
CC(=O)N1CCc2cc(N3CC(C(=O)Nc4ccc(F)cc4C)CC3=O)ccc21 (stereo not drawn)	690
CCc1ccc(NC(=O)Cn2ncc3c(c2=O)N(C2CC2)C(=O)CS3)cc1	797
CCC(C)n1c(=O)c2ccccc2n(Cc2nc(-c3ccc(SC)cc3)no2)c1=O (stereo not drawn)	1260
CCCN1CCN(CCNC(=O)CCc2cc3ccc(C)cc3[nH]c2=O)CC1	571
Cc1ccc(C)c(S(=O)(=O)N2CCC(c3noc(-c4ccccc4C)n3)CC2)c1	1270
COc1cc([C@@H]2c3cc4c(cc3[C@H](O)[C@@H](CO)[C@@H]2C(=O)NC2CCCCC2)OCO4)cc(OC)c1OC	736
COc1ccc(Nc2nccc(C3CCCN(C(=O)C(C)(C)C)C3)n2)cc1 (stereo not drawn)	892
CCNS(=O)(=O)c1cccnc1Nc1ccc(Cl)cc1	1030
CCCn1c(CCc2cccc(NS(=O)(=O)c3cnn(CC)c3)c2)nc2ccccc21	675
O=C(c1cc(S(=O)(=O)N2CCCC(C(=O)N3CCc4ccccc4C3)C2)c[nH]1)N1CCCC1 (stereo not drawn)	808
CCC(=O)NCc1nc2c(n1CC)CN(S(=O)(=O)c1cccc(F)c1)CC2	529
CCCN1CCN(C(=O)CN2CCN(C(=O)Nc3ccc(Br)cc3)CC2=O)CC1	597
Nc1ccccc1NC(=O)CCCCCC(=O)Nc1ccccc1	683
